One assay relates to E. faecium ATCC 49624. Put plainly: MIC determination in BHI media, OD600. The assay is classed as cell-based. The settings on record: BHI + 0.1% casamino acids, 18 hours at 37° C., ≧90% OD600 inhibition. On the procedure: (§1) Logarithmically growing cells were diluted to approximately 5×10^5 CFU/ml and subjected to test compounds solubilized and serially diluted in DMSO. […] After 18 hours at 37° C., the OD600 was determined by reading the ninety-six well microtiter plates on a microplate reader. For a given concentration, an MIC determination was made if: […]

In another assay the test system is S. Aureus ATCC 33591. Description: MIC determination in BHI media, OD600. The assay is classed as cell-based. The settings on record: BHI + 0.1% casamino acids, 18 hours at 37° C., ≧90% OD600 inhibition. The method, then: as §1
For the next assay, the system named is E. faecalis ATCC 29212. Put plainly: MIC determination in BHI media, OD600. It is filed as cell-based. The settings on record: BHI + 0.1% casamino acids, 18 hours at 37° C., ≧90% OD600 inhibition. On the procedure: as §1
The test system of the next assay is S aureus ATCC 29213. Description: MIC determination in BHI media, OD600. The settings on record: BHI + 0.1% casamino acids, 18 hours at 37° C., ≧90% OD600 inhibition. The assay is classed as cell-based. On the procedure:
as §1

A further assay concerns E. faecium CL 4931. Description: MIC determination in BHI media, OD600. The settings on record: BHI + 0.1% casamino acids, 18 hours at 37° C., ≧90% OD600 inhibition. It is filed as cell-based. On the procedure: as §1
The test system of the next assay is E. faceium (ATCC 49624). Put plainly: Zone of inhibition screen, 96 well agar array format. It is filed as cell-based, E. faecium. To be noted: zone of inhibition relative to 1 mg/ml stock solution of p-chlorobiphenylvancomycin. The procedure, abridged: (§2)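 Read-out is antibacterial activity on agar laid out as a 96-well array; every compound went through all strains of the panel.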

In the next assay the test system is E. faecalis (CL 4877). The description is as above. It is filed as cell-based. Further details: scale not given here. The procedure, abridged:
as §2

Assay [1] deals with S. epidermidis (ATCC 12228). The assay is described as above. It is filed as cell-based. Also on record: scale not given here. In outline: as §2
In another assay the test system is S. aureus (ATCC 29213). The assay is described as above. Further details: scale not given here. To be noted: zone of inhibition relative to 1 mg/ml p-chlorobiphenylvancomycin. It is filed as cell-based. The procedure, abridged:
as §2

Where [2] appears, read: zone of inhibition relative to 1 mg/ml stock solution of p-chlorobiphenylvancomycin.
Where [3] appears, read: zone of inhibition relative to 1 mg/ml p-chlorobiphenylvancomycin.
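Throughout, for zone score, E. faecium ATCC 49624: score 3 means fourfold and score 4 sixteenfold the reference zone size.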

For the molecule `CC1OC(OC2C(Oc3c4cc5cc3Oc3ccc(cc3Cl)C(O)C3NC(=O)C(NC(=O)C5NC(=O)C(CC(N)=O)NC(=O)C(NC(=O)C(N)CCCNC(N)=O)C(O)c5ccc(c(Cl)c5)O4)c4ccc(O)c(c4)-c4c(O)cc(O)cc4C(C(=O)O)NC3=O)OC(CO)C(O)C2O)CC(C)(NCc2ccc(-c3ccc(Cl)cc3)cc2)C1O` (stereo not drawn) [Compound 62], the MIC E. faecium ATCC 49624 in the assay with E. faecium ATCC 49624 is 0.12 µg/mL. The MIC S. aureus ATCC 33591 in the assay with S. Aureus ATCC 33591 worked out at 0.25 µg/mL. In addition, in the assay with E. faecalis ATCC 29212, the MIC E. faecalis ATCC 29212 came to 0.25 µg/mL. In the assay on S aureus ATCC 29213, the MIC S. aureus ATCC 29213 was 0.25 µg/mL.
Take `CC(O)C(N)C(=O)NC1C(=O)NC(CC(N)=O)C(=O)NC2C(=O)NC3C(=O)NC(C(=O)NC(C(=O)O)c4cc(O)cc(O)c4-c4cc3ccc4O)C(O)c3ccc(c(Cl)c3)Oc3cc2cc(c3OC2OC(CO)C(O)C(O)C2OC2CC(C)(NCc3ccc(-c4ccc(Cl)cc4)cc3)C(O)C(C)O2)Oc2ccc(cc2Cl)C1O` (stereo not drawn) [Compound 89]: the MIC E. faecium ATCC 49624 in the assay with E. faecium ATCC 49624 turned out to be 0.78 µg/mL. For the same molecule, the MIC E. faecium CL 4931 with E. faecium CL 4931 is over 25 µg/mL. The “zone score, E. faecium ATCC 49624” value in the assay with E. faceium (ATCC 49624) came to 2. For the same molecule, the “zone score, E. faecalis CL 4877” value in the assay with E. faecalis (CL 4877) (setting [2]) is recorded as 2. In assay [1] (setting [2]), the “zone score, S. epidermidis ATCC 12228” value is 2.
For `CC1OC(OC2C(Oc3c4cc5cc3Oc3ccc(cc3Cl)C(O)C3NC(=O)C(NC(=O)C5NC(=O)C(CC(N)=O)NC(=O)C(NC(=O)C(N)CCS(C)(=O)=O)C(O)c5ccc(c(Cl)c5)O4)c4ccc(O)c(c4)-c4c(O)cc(O)cc4C(C(=O)O)NC3=O)OC(CO)C(O)C2O)CC(C)(NCc2ccc(-c3ccc(Cl)cc3)cc2)C1O` (stereo not drawn) [Compound 82], the MIC E. faecium ATCC 49624 in the assay with E. faecium ATCC 49624 amounted to 0.39 µg/mL. For the same molecule, the MIC S. aureus ATCC 33591 in the assay on S. Aureus ATCC 33591 stood at 0.78 µg/mL. Further, the MIC E. faecium CL 4931 in the assay on E. faecium CL 4931 worked out at 25 µg/mL. For the same molecule, the MIC S. aureus ATCC 29213 with S aureus ATCC 29213 was determined as 0.78 µg/mL. In addition, the “zone score, E. faecium ATCC 49624” value with E. faceium (ATCC 49624) was 2.
Turning to `CC1OC(OC2C(Oc3c4cc5cc3Oc3ccc(cc3Cl)C(O)C3NC(=O)C(NC(=O)C5NC(=O)C(CC(N)=O)NC(=O)C(NC(=O)CN5CCNCC5)C(O)c5ccc(c(Cl)c5)O4)c4ccc(O)c(c4)-c4c(O)cc(O)cc4C(C(=O)O)NC3=O)OC(CO)C(O)C2O)CC(C)(NCc2ccc(-c3ccc(Cl)cc3)cc2)C1O` (stereo not drawn) [Compound 34], the MIC E. faecium ATCC 49624 with E. faecium ATCC 49624 was 0.78 µg/mL. Further, in the assay with E. faecium CL 4931, the MIC E. faecium CL 4931 worked out at 25 µg/mL. The MIC S. aureus ATCC 29213 with S aureus ATCC 29213 amounted to 0.78 µg/mL. Moreover, the “zone score, E. faecium ATCC 49624” value with E. faceium (ATCC 49624) is listed as 2.
For `C[C@H]1O[C@H](O[C@H]2[C@H](Oc3c4cc5cc3Oc3ccc(cc3Cl)[C@@H](O)[C@@H](NC(=O)CN3CCNCC3)C(=O)N[C@@H](CC(N)=O)C(=O)N[C@H]5C(=O)N[C@H]3C(=O)N[C@H](C(=O)N[C@@H](C(=O)O)c5cc(O)cc(O)c5-c5cc3ccc5O)[C@H](O)c3ccc(c(Cl)c3)O4)O[C@H](CO)[C@@H](O)[C@@H]2O)C[C@@](C)(NCc2ccc(-c3ccc(Cl)cc3)cc2)[C@H]1O` [Compound 24], the MIC S. aureus ATCC 33591 with S. Aureus ATCC 33591 turned out to be 0.78 µg/mL. In addition, the MIC E. faecium CL 4931 in the assay with E. faecium CL 4931 is 25 µg/mL. The MIC S. aureus ATCC 29213 in the assay with S aureus ATCC 29213 worked out at 0.78 µg/mL. For the same molecule, in the assay on E. faceium (ATCC 49624), the “zone score, E. faecium ATCC 49624” value is 2. For the same molecule, the “zone score, S. epidermidis ATCC 12228” value in assay [1] (setting [2]) is reported as 2.
In the case of `C[C@H]1O[C@H](O[C@H]2[C@H](Oc3c4cc5cc3Oc3ccc(cc3Cl)[C@@H](O)[C@@H](NC(=O)c3cccc(N)c3)C(=O)N[C@@H](CC(N)=O)C(=O)N[C@H]5C(=O)N[C@H]3C(=O)N[C@H](C(=O)N[C@@H](C(=O)O)c5cc(O)cc(O)c5-c5cc3ccc5O)[C@H](O)c3ccc(c(Cl)c3)O4)O[C@H](CO)[C@@H](O)[C@@H]2O)C[C@@](C)(NCc2ccc(-c3ccc(Cl)cc3)cc2)[C@H]1O` [Compound 257], the MIC E. faecium ATCC 49624 in the assay with E. faecium ATCC 49624 amounted to 0.39 µg/mL. Besides, the MIC S. aureus ATCC 33591 in the assay with S. Aureus ATCC 33591 came to 0.78 µg/mL. The MIC E. faecium CL 4931 in the assay with E. faecium CL 4931 is 25 µg/mL. For the same molecule, in the assay with S aureus ATCC 29213, the MIC S. aureus ATCC 29213 stood at 0.78 µg/mL. For the same molecule, in the assay on E. faecalis (CL 4877) (setting [3]), the “zone score, E. faecalis CL 4877” value is 2. The “zone score, S. epidermidis ATCC 12228” value in [1] (setting [3]) was 2. Besides, the “zone score, S. aureus ATCC 29213” value in the assay with S. aureus (ATCC 29213) is on record as 2.

These data come from patent US6518243B1, “Desleucyl glycopeptide antibiotics and methods of making same” (Trustees of Princeton University, priority 1999, dated 2003).
